{
  "source": "patent US20100111874A1",
  "about": "“METHOD OF CANCER DETECTION AND TREATMENT” (University of Medicine and Dentistry of New Jresey, priority 2007, published 2010)",
  "biological_target": "T1, TOP1 (Homo sapiens, UniProt P11387)",
  "T1 construct": "endogenous in cells; host or cells: ZR-75-1 and its shRNA clones",
  "T1 sequence (P11387 1-765)": "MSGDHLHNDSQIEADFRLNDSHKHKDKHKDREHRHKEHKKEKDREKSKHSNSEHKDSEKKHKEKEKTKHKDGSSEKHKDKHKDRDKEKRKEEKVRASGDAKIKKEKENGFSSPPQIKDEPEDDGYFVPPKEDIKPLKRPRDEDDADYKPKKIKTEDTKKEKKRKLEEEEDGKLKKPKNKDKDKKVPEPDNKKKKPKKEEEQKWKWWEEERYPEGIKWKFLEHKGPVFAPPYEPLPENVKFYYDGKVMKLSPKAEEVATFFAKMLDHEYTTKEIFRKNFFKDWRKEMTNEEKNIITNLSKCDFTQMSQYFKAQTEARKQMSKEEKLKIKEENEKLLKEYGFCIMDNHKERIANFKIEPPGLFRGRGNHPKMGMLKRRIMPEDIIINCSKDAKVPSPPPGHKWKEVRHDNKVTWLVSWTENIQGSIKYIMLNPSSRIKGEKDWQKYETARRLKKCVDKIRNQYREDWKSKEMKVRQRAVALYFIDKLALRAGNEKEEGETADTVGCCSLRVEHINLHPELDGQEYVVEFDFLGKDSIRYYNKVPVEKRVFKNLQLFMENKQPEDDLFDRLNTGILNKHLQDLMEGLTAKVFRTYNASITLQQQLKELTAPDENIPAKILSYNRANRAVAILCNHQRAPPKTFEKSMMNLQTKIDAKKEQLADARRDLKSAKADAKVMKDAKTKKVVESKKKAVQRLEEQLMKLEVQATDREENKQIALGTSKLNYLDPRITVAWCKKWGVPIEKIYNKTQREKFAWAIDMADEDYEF",
  "test": "Immunoblotting assay for CPT-induced TOP1 degradation",
  "format": "cell-based",
  "settings": "CPT 25 μM",
  "method": "Band depletion assay for TOP1 cleavage complexes. Cells (106/sample) are treated with CPT (25 μM in 1% DMSO) for various times at 37° C. Cells are then lysed with 0.2 N NaOH containing 2 mM EDTA as described previously (14). Cell lysates are then neutralized with 1/10 volume of a solution containing 10% NP-40, 1 M Tris (pH 7.4), 0.1 M MgCl2, 0.1 M CaCl2, 10 mM dithiothreitol, 1 mM EGTA, and a mixture of peptide protease inhibitors (100 μg/ml each of leupeptin, pepstatin, and aprotinin), followed by the addition of another 1/10 volume of 2 N HCl. Reactions are terminated by the addition of SDS-PAGE sample buffer. Immunoblotting analysis of cell lysates is carried out using anti-Scl-70 antibody from scleroderma patients as described above.\nImmunoblotting assay for CPT-induced TOP1 degradation. Cells are prepared for immunoblotting as described above with two modifications. First, cells are incubated in CPT-free medium for 30 min prior to lysis (to reverse TOP1 cleavage complexes and to de-conjugate TOP1-ubiquitin and TOP1-UBL conjugates). Second, neutralized cell lysates are incubated with Staphylococcus aureus nuclease S7 (60 U/reaction) for 20 min on ice (to release TOP1 from residual TOP1-DNA covalent complexes) prior to termination with SDS-PAGE sample buffer.\nExample No. 3. […] Panel A, Reduced ISG15 expression in ZR-75-1 cells expressing ISG15 shRNA. Cell lysates of ZR-75-1 clones expressing either control shRNA (lane #1) or ISG15 shRNA (lanes #2) are analyzed by 15% SDS-PAGE. Western blotting analysis is performed using anti-ISG15 antisera (upper panel). […] Panel B, CPT sensitivity. Clonogenic survival assay is carried out as described in Materials and Methods. Colonogenic survival curves of a ZR-75-1 clone expressing control shRNA and ISG15 shRNA after CPT treatment is shown. Mean±SD values from at least two experiments are presented. Panel C, CPT-induced TOP1 down-regulation. ZR-75-1 cells stably transfected with control shRNA (lanes 1-4) or ISG15 shRNA (lanes #5-8) (10^6 cells/sample) are treated with either DMSO (lanes #1 and 5) or CPT (25 μM in 1% DMSO) (lanes #2-4 and 6-8) for various times at 37° C. Subsequently, cells are placed in fresh CPT-free media for 30 min to reverse cleavable complexes. Cell lysis and immunoblotting using anti-hTOP1 antisera are carried out as described in FIG. 1 (upper panels).\nExample No. 4. […] Panel A, the reduced UbcH8 protein level in ZR-75-1 cells expressing UbcH8 shRNA. Cell lysates prepared from ZR-75-1 clones expressing either control shRNA (lane #1) or UbcH8 shRNA (lanes #2 and 3, from two independent clones), and the purified UbcH8 protein (lane #4) are analyzed by 15% SDS-PAGE. Western blotting analysis is performed using anti-UbcH8 antibody (Abeam). […] Panel B, UbcH8 shRNA decreases ISG15 conjugation in ZR-75-1 cells. Cell lysates prepared from ZR-75-1 clones expressing either control shRNA (lane #1) or UbcH8 shRNA (lanes #2 and 3, two independent clones), and the purified UbcH8 protein (lane #4) are analyzed by 15% SDS-PAGE. Western blotting analysis is performed using anti-ISG15 antibody. The non-specific bands are due to the crossreactivity of the ISG15 antibody to bovine serum albumin. Panel C, knocking down UbcH8 confers CPT resistance. ZR-75-1 clones expressing control shRNA and UbcH8 shRNA (two independent clones) are treated with CPT and cell survival is measured as described in Example 3. Panels D-F, CPT-induced TOP1 down-regulation is […] in ZR-75-1 cells expressing UbcH8 shRNA. Clonal cells of ZR-75-1 expressing control (panel D) or UbcH8 shRNA (panels E and F, representing two independent clones) (10^6/sample) are treated with either DMSO (lanes #1, 5, and 9) or CPT (25 μM in 1% DMSO) (lanes #2-4, 6-8, and 10-12) for various times at 37° C. Cells are then placed in fresh CPT-free media for 30 min to reverse cleavage complexes. Cell lysis and immunoblotting using anti-hTOP1 antibody are carried out as described in Example 1.",
  "data": [
    {"smiles": "CC[C@@]1(O)C(=O)OCc2c1cc1n(c2=O)Cc2cc3ccccc3nc2-1", "note": "[CPT, camptothecin]", "values": [
      {"measurement": "TOP1 down-regulation", "setting": "MCF7/RC cells", "value": "increased"},
      {"measurement": "TOP1 down-regulation", "setting": "ZR/ISG15-shRNA1 cells, 2 hrs", "value": "about 50%"},
      {"measurement": "degradation of TOP1", "setting": "ZR/UbcH8-shRNA1 cells, 2 hrs", "value": "about 50%"},
      {"measurement": "degradation of TOP1", "setting": "ZR/UbcH8-shRNA2 cells, 2 hrs", "value": "about 50%"},
      {"measurement": "TOP1 down-regulation", "setting": "ZR/control-shRNA1 cells", "value": "minimal"},
      {"measurement": "TOP1 down-regulation", "setting": "ZR/control-shRNA2 cells", "value": "minimal"},
      {"measurement": "TOP1 down-regulation", "setting": "parental MCF7 cells", "value": "minimal"}
    ]}
  ]
}
